Experimental findings from patent US6610853B1, “N-(phenylsulfonyl)picolinamide derivatives, process for producing the same, and herbicide” (Kureha Kagaku Kogyo K.K., priority 2000, dated 2003) are described below.

What all share (assay): Test on herbicidal activity by foliar application
Common to all, as to format: in vivo
What all share (conditions): foliar spray, 1 kg/ha, plants at 1-2 leaf stage in pots, evaluated 14 days after spraying

One experiment has as its system Sinapis arvensis. How it is done:
(§1) Test on Herbicidal Activity by Foliar Application: Herbicidal solutions of each test compounds, which were prepared by dissolving at predetermined concentrations such a wettable powder of the test compound as that described in the above Formulation Example, were sprayed at dosages of 1 kg/ha over foliar parts of Amaranthus retroflexus, Bidens pilosa, Sinapis arvensis, Stellaria media, Solanum nigrum, Abutilon theophrasti, Convolvulus arvensis, Matricaria chamomilla, Galium aparine, Veronica hederaefolia, and Setaria viridis (each test plant is 1-2 leaf stage) which were grown in pots. 14 days latter after spraying, its herbicidal activity was evaluated in accordance with the below-described system. Herbicidal Activity 1: less than 30% inhibition 2: 30% or more-50% inhibition 3: 50% or more-70% inhibition 4: 70% or more-90% inhibition 5: 90% or more inhibition

A further experiment relates to Amaranthus retroflexus. As to the method:
as §1

The subject of the next experiment is Solanum nigrum. How it is done:
as §1

For another experiment, the system named is Setaria viridis. As to the method: as §1
The test system of another experiment is Abutilon theophrasti. How it is done:
as §1

The subject of the next experiment is Matricaria chamomilla. How it is done: as §1
For the next experiment, the system named is Veronica hederaefolia. How it is done: as §1
A further experiment has as its system Convolvulus arvensis. As to the method:
as §1

A further experiment concerns Stellaria media. As to the method: as §1
The test system of a further experiment is Bidens pilosa. As to the method: as §1
The next experiment concerns Galium aparine. How it is done: as §1

For `O=C(NS(=O)(=O)c1ccccc1OC(F)(F)F)c1cccc(Cl)n1` [Compound I-771, N-[[2-Trifluoromethoxyphenyl]sulfonyl]-6-chloro-2-pyridinecarboxamide], the “Herbicidal activity, Sinapis arvensis” value in the experiment with Sinapis arvensis is 5 (90% or more inhibition). Besides, the “Herbicidal activity, Amaranthus retroflexus” value in the experiment with Amaranthus retroflexus is reported as 5 (90% or more inhibition). Besides, the “Herbicidal activity, Solanum nigrum” value in the experiment on Solanum nigrum is listed as 5 (90% or more inhibition). Moreover, the “Herbicidal activity, Setaria viridis” value in the experiment on Setaria viridis is on record as 1 (less than 30% inhibition). Moreover, the “Herbicidal activity, Abutilon theophrasti” value in the experiment with Abutilon theophrasti is 5 (90% or more inhibition). In addition, in the experiment with Matricaria chamomilla, the “Herbicidal activity, Matricaria chamomilla” value was 5 (90% or more inhibition). Besides, in the experiment on Veronica hederaefolia, the “Herbicidal activity, Veronica hederaefolia” value was 5 (90% or more inhibition). Moreover, the “Herbicidal activity, Convolvulus arvensis” value in the experiment with Convolvulus arvensis is on record as 4 (70% or more-90% inhibition). Moreover, in the experiment with Stellaria media, the “Herbicidal activity, Stellaria media” value is recorded as 5 (90% or more inhibition). In addition, in the experiment on Bidens pilosa, the “Herbicidal activity, Bidens pilosa” value is 5 (90% or more inhibition). The “Herbicidal activity, Galium aparine” value with Galium aparine is on record as 5 (90% or more inhibition).
For `COc1ccc(C(=O)NS(=O)(=O)c2ccccc2OC(F)(F)F)nc1Br` [Compound I-805, N-[[2-Trifluoromethoxyphenyl]sulfonyl]-6-bromo-5-methoxy-2-pyridinecarboxamide], in the experiment on Sinapis arvensis, the “Herbicidal activity, Sinapis arvensis” value is 5 (90% or more inhibition). Further, the “Herbicidal activity, Amaranthus retroflexus” value in the experiment with Amaranthus retroflexus is on record as 5 (90% or more inhibition). In addition, the “Herbicidal activity, Solanum nigrum” value with Solanum nigrum is reported as 5 (90% or more inhibition). The “Herbicidal activity, Setaria viridis” value in the experiment with Setaria viridis is on record as 4 (70% or more-90% inhibition). Moreover, in the experiment on Abutilon theophrasti, the “Herbicidal activity, Abutilon theophrasti” value is recorded as 5 (90% or more inhibition). Moreover, the “Herbicidal activity, Matricaria chamomilla” value in the experiment with Matricaria chamomilla was 5 (90% or more inhibition). For the same molecule, in the experiment with Veronica hederaefolia, the “Herbicidal activity, Veronica hederaefolia” value was 4 (70% or more-90% inhibition). Also, the “Herbicidal activity, Convolvulus arvensis” value with Convolvulus arvensis is given as 5 (90% or more inhibition). Moreover, in the experiment with Stellaria media, the “Herbicidal activity, Stellaria media” value is 5 (90% or more inhibition). The “Herbicidal activity, Bidens pilosa” value in the experiment with Bidens pilosa is recorded as 5 (90% or more inhibition). Further, the “Herbicidal activity, Galium aparine” value in the experiment with Galium aparine is given as 5 (90% or more inhibition).
For `COC(=O)c1ccccc1S(=O)(=O)NC(=O)c1ccc(OC)c(OC)n1` [Compound I-259, 2-[[[(5,6-Dimethoxypyridin-2-yl)carbonyl]-amino]sulfonyl]benzoic Acid Methyl Ester], the “Herbicidal activity, Sinapis arvensis” value in the experiment with Sinapis arvensis was 5 (90% or more inhibition). The “Herbicidal activity, Amaranthus retroflexus” value in the experiment with Amaranthus retroflexus was 5 (90% or more inhibition). Also, in the experiment on Solanum nigrum, the “Herbicidal activity, Solanum nigrum” value is recorded as 4 (70% or more-90% inhibition). The “Herbicidal activity, Setaria viridis” value in the experiment on Setaria viridis is 4 (70% or more-90% inhibition). Besides, in the experiment on Abutilon theophrasti, the “Herbicidal activity, Abutilon theophrasti” value is recorded as 5 (90% or more inhibition). In addition, the “Herbicidal activity, Matricaria chamomilla” value with Matricaria chamomilla is recorded as 4 (70% or more-90% inhibition). In addition, in the experiment on Veronica hederaefolia, the “Herbicidal activity, Veronica hederaefolia” value is 4 (70% or more-90% inhibition). The “Herbicidal activity, Convolvulus arvensis” value in the experiment on Convolvulus arvensis is listed as 3 (50% or more-70% inhibition). In the experiment with Stellaria media, the “Herbicidal activity, Stellaria media” value is recorded as 5 (90% or more inhibition). Further, in the experiment on Bidens pilosa, the “Herbicidal activity, Bidens pilosa” value is 4 (70% or more-90% inhibition). Further, the “Herbicidal activity, Galium aparine” value in the experiment with Galium aparine is 5 (90% or more inhibition).
On to `COc1ccc(C(=O)NS(=O)(=O)c2ccccc2S(=O)(=O)N(C)C)nc1OC` [Compound I-889, N-[[2-(N,N-Dimethylaminosulfonyl)phenyl]-sulfonyl]-5,6-dimethoxy-2-pyridinecarboxamide], for which the “Herbicidal activity, Sinapis arvensis” value with Sinapis arvensis was 5 (90% or more inhibition). Moreover, the “Herbicidal activity, Amaranthus retroflexus” value in the experiment with Amaranthus retroflexus is 5 (90% or more inhibition). Moreover, in the experiment on Solanum nigrum, the “Herbicidal activity, Solanum nigrum” value was 4 (70% or more-90% inhibition). In addition, the “Herbicidal activity, Setaria viridis” value in the experiment on Setaria viridis is reported as 4 (70% or more-90% inhibition). The “Herbicidal activity, Abutilon theophrasti” value with Abutilon theophrasti is 5 (90% or more inhibition). Besides, the “Herbicidal activity, Matricaria chamomilla” value with Matricaria chamomilla is 5 (90% or more inhibition). Further, the “Herbicidal activity, Veronica hederaefolia” value in the experiment on Veronica hederaefolia is on record as 3 (50% or more-70% inhibition). Also, the “Herbicidal activity, Convolvulus arvensis” value with Convolvulus arvensis was 4 (70% or more-90% inhibition). Moreover, the “Herbicidal activity, Stellaria media” value in the experiment with Stellaria media is given as 5 (90% or more inhibition). Further, in the experiment with Bidens pilosa, the “Herbicidal activity, Bidens pilosa” value was 5 (90% or more inhibition). Besides, the “Herbicidal activity, Galium aparine” value in the experiment on Galium aparine is recorded as 5 (90% or more inhibition).
For `COc1cc(Cl)nc(C(=O)NS(=O)(=O)c2ccccc2OC(F)(F)F)c1` [Compound I-795, N-[(2-Trifluoromethoxyphenyl)sulfonyl]-6-chloro-4-methoxy-2-pyridinecarboxamide], the “Herbicidal activity, Sinapis arvensis” value in the experiment on Sinapis arvensis is listed as 5 (90% or more inhibition). For the same molecule, the “Herbicidal activity, Amaranthus retroflexus” value with Amaranthus retroflexus is 4 (70% or more-90% inhibition). In addition, in the experiment on Solanum nigrum, the “Herbicidal activity, Solanum nigrum” value is on record as 5 (90% or more inhibition). Also, the “Herbicidal activity, Setaria viridis” value in the experiment on Setaria viridis is given as 2 (30% or more-50% inhibition). Besides, the “Herbicidal activity, Abutilon theophrasti” value with Abutilon theophrasti is recorded as 4 (70% or more-90% inhibition). In addition, the “Herbicidal activity, Matricaria chamomilla” value in the experiment with Matricaria chamomilla is listed as 5 (90% or more inhibition). Moreover, in the experiment on Veronica hederaefolia, the “Herbicidal activity, Veronica hederaefolia” value is reported as 5 (90% or more inhibition). Further, the “Herbicidal activity, Convolvulus arvensis” value with Convolvulus arvensis is 3 (50% or more-70% inhibition). Besides, in the experiment with Stellaria media, the “Herbicidal activity, Stellaria media” value is on record as 5 (90% or more inhibition). Moreover, the “Herbicidal activity, Bidens pilosa” value in the experiment with Bidens pilosa was 5 (90% or more inhibition). In the experiment on Galium aparine, the “Herbicidal activity, Galium aparine” value is on record as 5 (90% or more inhibition).
With `COc1cc(Cl)nc(C(=O)NS(=O)(=O)c2ccccc2S(=O)(=O)N(C)C)c1` [Compound I-885, 6-Chloro-4-methoxy-N-[[2-(N,N-dimethylaminosulfonyl)phenyl]sulfonyl]-2-pyridinecarboxamide], the “Herbicidal activity, Sinapis arvensis” value with Sinapis arvensis is given as 5 (90% or more inhibition). The “Herbicidal activity, Amaranthus retroflexus” value with Amaranthus retroflexus is reported as 5 (90% or more inhibition). Moreover, in the experiment on Solanum nigrum, the “Herbicidal activity, Solanum nigrum” value is 5 (90% or more inhibition). In addition, the “Herbicidal activity, Setaria viridis” value in the experiment with Setaria viridis was 5 (90% or more inhibition). Moreover, in the experiment on Abutilon theophrasti, the “Herbicidal activity, Abutilon theophrasti” value is reported as 5 (90% or more inhibition). The “Herbicidal activity, Matricaria chamomilla” value with Matricaria chamomilla was 5 (90% or more inhibition). Moreover, in the experiment with Veronica hederaefolia, the “Herbicidal activity, Veronica hederaefolia” value is recorded as 4 (70% or more-90% inhibition). For the same molecule, in the experiment with Convolvulus arvensis, the “Herbicidal activity, Convolvulus arvensis” value is 5 (90% or more inhibition). Moreover, the “Herbicidal activity, Stellaria media” value with Stellaria media is reported as 5 (90% or more inhibition). The “Herbicidal activity, Bidens pilosa” value in the experiment with Bidens pilosa is on record as 5 (90% or more inhibition). The “Herbicidal activity, Galium aparine” value with Galium aparine is given as 5 (90% or more inhibition).
As to `COc1cc(Cl)nc(C(=O)NS(=O)(=O)c2ccccc2S(C)(=O)=O)c1` [Compound I-818, 6-Chloro-4-methoxy-N-[[2-(methylsulfonyl)-phenyl]sulfonyl]-2-pyridinecarboxamide], in the experiment on Sinapis arvensis, the “Herbicidal activity, Sinapis arvensis” value was 5 (90% or more inhibition). Further, in the experiment with Amaranthus retroflexus, the “Herbicidal activity, Amaranthus retroflexus” value is 5 (90% or more inhibition). Also, the “Herbicidal activity, Solanum nigrum” value with Solanum nigrum is reported as 5 (90% or more inhibition). The “Herbicidal activity, Setaria viridis” value in the experiment with Setaria viridis is reported as 5 (90% or more inhibition). The “Herbicidal activity, Abutilon theophrasti” value in the experiment on Abutilon theophrasti was 4 (70% or more-90% inhibition). Further, the “Herbicidal activity, Matricaria chamomilla” value in the experiment with Matricaria chamomilla is reported as 5 (90% or more inhibition). Besides, in the experiment with Veronica hederaefolia, the “Herbicidal activity, Veronica hederaefolia” value is recorded as 4 (70% or more-90% inhibition). In the experiment on Convolvulus arvensis, the “Herbicidal activity, Convolvulus arvensis” value is given as 5 (90% or more inhibition). In addition, in the experiment on Stellaria media, the “Herbicidal activity, Stellaria media” value is given as 5 (90% or more inhibition). The “Herbicidal activity, Bidens pilosa” value with Bidens pilosa is 5 (90% or more inhibition). Besides, in the experiment with Galium aparine, the “Herbicidal activity, Galium aparine” value is 5 (90% or more inhibition).
As to `O=C(NS(=O)(=O)c1c(Cl)cccc1Cl)c1cc(Cl)cc(Cl)n1` [Compound I-557, 4,6-Dichloro-N-[(2,6-Dichlorophenyl)sulfonyl]-pyridine-2-carboxamide], in the experiment with Sinapis arvensis, the “Herbicidal activity, Sinapis arvensis” value is on record as 5 (90% or more inhibition). The “Herbicidal activity, Amaranthus retroflexus” value in the experiment on Amaranthus retroflexus is reported as 5 (90% or more inhibition). Further, the “Herbicidal activity, Solanum nigrum” value in the experiment with Solanum nigrum is 5 (90% or more inhibition). The “Herbicidal activity, Setaria viridis” value in the experiment with Setaria viridis is 5 (90% or more inhibition). The “Herbicidal activity, Abutilon theophrasti” value in the experiment with Abutilon theophrasti is recorded as 5 (90% or more inhibition). Moreover, in the experiment on Matricaria chamomilla, the “Herbicidal activity, Matricaria chamomilla” value is 5 (90% or more inhibition). In addition, the “Herbicidal activity, Veronica hederaefolia” value in the experiment on Veronica hederaefolia is on record as 5 (90% or more inhibition). Moreover, the “Herbicidal activity, Convolvulus arvensis” value in the experiment with Convolvulus arvensis was 5 (90% or more inhibition). Moreover, the “Herbicidal activity, Stellaria media” value in the experiment with Stellaria media was 5 (90% or more inhibition). The “Herbicidal activity, Bidens pilosa” value with Bidens pilosa is reported as 5 (90% or more inhibition). In the experiment with Galium aparine, the “Herbicidal activity, Galium aparine” value is 5 (90% or more inhibition).
